This is an account of results in US8053583B2, “Anti-cancer compound and manufacturing method thereof” (National Defense Medical Center, priority 2008, dated 2011).

Usually viability stands for a read-out of living cells in per cent, often relative to untreated cells. What is called melting point is the temperature of the solid-liquid transition.

Series [1] concerns SVG p12 (human brain astroglia) cells. Description: MTT colorimetric assay, normal SVG p12 cells. The following applies: conc. 10 μM, 46 hours with drug, then 2 hours MTT, ratio to control group without drug. (Tetrazolium dyes change colour on reduction, which living cells bring about.)
From the text: (§1) MTT (tetrazole) assay used to determine tumor viability is based on measurement of the activity of dehydrogenase to determine cell growth conditions. In live cells, dehydrogenase in active mitochondria converts yellow MTT [3-(4,5-dimethylthiazol-2-yl)-2,5-diphenyltetra zolium bromide] into purple formazan on the reductive cleavage of its tetrazolium ring. The formazan crystal is examined under the microscope. While the mitochondria in dead cells are without active dehydrogenase, no crystal is generated and the color remains yellow. After adding MTT into cell cultures and reacting for 2 hours, the amount of generated formazan precipitate is proportional to total amount of dehydrogenase. Removing the culture medium, add DMSO to dissolve the purple formazan precipitate. Then measure the absorbance of the precipitate by is measured by the spectrophotometer at 560/670 nm so as to learn inhibition effect of drugs acted on normal cells and tumor cells.
(§2) GBM 8401, GBM 8901 (human brain glioblastoma) and SVG p12 (human brain astroglia)cells line are selected to be used in 96 well petri dishes. Each well is filled into the same amount of cells-about 5000 cells per well. After being cultured for 24 hours and cells anchor/attach, the 96 wells are divided into two groups-an experimental group and a control group containing no samples. The samples are diluted into 10 μg/mL by culture medium. Take 200 μL of each sample and add into the experimental group and the control group is added with 200 μL culture medium without samples. After 46 hours of culture, each well is added with 10 μL MTT solution, incubate cells at 37° C., 5% CO2 for 2 hours.
(§3) Then each well is added with 100 μL, dissolving formazan. Shaking for 10 minutes and measure the absorbance at 560/670 nm of the sample by the spectrometer. The data of the experimental group is divided by the data of the control group to get the estimated cell viability.
(§4) Three cell lines-GBM 8401, GBM 8901, SVG p12 (normal) are used in cytotoxicity tests of 1,8-bis-substituted amidoanthraquinone. After reacting with the drug for 46 hours, the cells are reacted with certain amount of MTT solution. After 2 hours, DMSO is used to dissolve formazan and O.D. (optical density) at 560/670 nm is measured. Then calculate the radios of the experimental groups (with drugs) to the control groups (without drugs).
The test system of series [2] is GBM 8901 (human brain glioblastoma) cells. Description: MTT colorimetric assay, GBM 8901 cells. The following applies: 46 hours with drug, then 2 hours MTT, ratio to control group without drug; for viability at 10 µM: Homo sapiens, read-out: Cell viability (%) GBM 8901, conc. 10 μM.
From the text: as §1, §2, §3, §4
Series [3] concerns GBM 8401 (human brain glioblastoma) cells. Description: MTT colorimetric assay, GBM 8401 cells. The conditions noted are these: 46 hours with drug, then 2 hours MTT, ratio to control group without drug; for Cell viability (%) GBM 8401: conc. 10 μM; for viability at 10 µM: Homo sapiens, read-out: Cell viability (%) GBM 8401, conc. 10 μM.
From the text: as §1, §2, §3, §4
The nature of series [4]: MTT colorimetric assay, normal SVG p12 cells. The conditions noted are these: human, SVG p12 cells (normal human brain astroglia), Cell viability (%) SVG p12, conc. 10 μM, 46 hours with drug, then 2 hours MTT, ratio to control group without drug.
From the text: as §1, §2, §3, §4

Regarding `COC(=O)[C@H](C)NCC(=O)Nc1cccc2c1C(=O)c1c(NC(=O)CN[C@H](C)C(=O)OC)cccc1C2=O` [Compound 3h, (L)-1,8-Bis[2-(alalinemethyl ester)acetamido]anthraquinone], the “Cell viability (%) SVG p12” value in series [1] came to 128 ± 34%. In series [2], the viability at 10 µM was determined as 100 ± 24%. For the same compound, in series [3], the “Cell viability (%) GBM 8401” value is recorded as 158 ± 3%.
With `COC(=O)[C@H](NCC(=O)Nc1cccc2c1C(=O)c1c(NC(=O)CN[C@@H](C(=O)OC)C(C)C)cccc1C2=O)C(C)C` [Compound 3e, (D)-1,8-Bis[2-(valinemethyl ester)acetamido]anthraquinone], the “Cell viability (%) SVG p12” value in series [1] stood at 138 ± 10%. Besides, in series [2] (conc. 10 μM), the “Cell viability (%) GBM 8901” value is 88 ± 10%. In series [3], the “Cell viability (%) GBM 8401” value turned out to be 153 ± 32%.
On to `COC(=O)[C@H](CC(C)C)NCC(=O)Nc1cccc2c1C(=O)c1c(NC(=O)CN[C@H](CC(C)C)C(=O)OC)cccc1C2=O` [Compound 3g, 1,8-Bis[2-(leucinemethyl ester)acetamido]anthraquinone], for which the melting point lay within 238 to 239 °C. Further, the viability at 46 h, 10 μM in series [4] stood at 153 ± 11%. Besides, the viability at 10 µM in series [2] was 89 ± 4%. In addition, the viability at 10 µM in series [3] turned out to be 111 ± 8%.
Compound `CCCN(CCC)CCC(=O)Nc1cccc2c1C(=O)c1c(NC(=O)CCN(CCC)CCC)cccc1C2=O` [Compound 4g] gave a melting point of 129 to 130 °C. Besides, the viability at 46 h, 10 μM in series [4] came to 4%. Moreover, in series [2], the viability at 10 µM was 8 ± 2%. The viability at 10 µM in series [3] came to 5 ± 1%.
In turn, `CC(C)(C)OC(=O)NCCNCCC(=O)Nc1cccc2c1C(=O)c1c(NC(=O)CCNCCNC(=O)OC(C)(C)C)cccc1C2=O` [Compound 4d, 1,8-Bis[2-(N-Boc-ethanediamino)propionamido]anthraquinone] gave a melting point of 101 to 102 °C. The viability at 46 h, 10 μM in series [4] was 8 ± 1%. In addition, in series [2], the viability at 10 µM amounted to 4%. Moreover, the viability at 10 µM in series [3] was determined as 10 ± 5%.
